Test system: 695427-040-R-J1-PDC complex spheroid viability
Assay: Anticancer human tumor 695427-040-R-J1-PDC patient-derived colon adenocarcinoma cell line growth inhibition [POLQ]
Details: for IC50: curve of first compound; for viability, T/C: stronger effect = lower value
Description: Multicellular complex tumor spheroid response to Polymerase (POL) inhibitors (novobiocin, ART-558, RP6685) in combination with a variety of drugs and investigational agents in selected tumor cell lines
The POL inhibitors (novobiocin, ART-558, and RP6685) were evaluated both individually and in combination with standard of care and investigational anticancer small molecules within a complex spheroid model of solid tumors. . Complex spheroids include a stromal component modeled by human endothelial cells (HUVEC) and fibroblasts modeled by human mesenchymal stem cells (MSCs). The concentration ranges selected for each drug and investigational agent were based upon clinically achievable concentrations if the clinical Cmax of the agent was known.
Compounds. The drugs and investigational agents: novobiocin (NSC847541), ART-558 (NSC835418), RP-6685 (NSC848927), peposertib (NSC802822), ceralasertib (NSC780249), elimusertib (NSC800525), camonsertib (NSC841442), AZD-1390 (NSC803789), olaparib (NSC753686), talazoparib (NSC767125), rucaparib (NSC756644), sotorasib (NSC818433), MRTX-1133 (NSC836407), SN-38 (NSC673596), topotecan (NSC609699), epotoside (NSC141540), doxorubicin (NSC123127), gemcitabine (NSC613327), 5-fluorouracil (NSC19893), paclitaxel (NSC125973), vemurafenib (NSC761431), MSA-2 (NSC828583), SN-011 (NSC837082), adavosertib (NSC754352), prexasertib (NSC758257), carboplatin (NSC241240) and oxaliplatin (NSC266046), were obtained from the National Cancer Institute (NCI) Developmental Therapeutics Program Chemical Repository (21). The FDA-approved anticancer drug set is available from the Developmental Therapeutics Program at https://dtp.cancer.gov/organization/dscb/obtaining/. […] The stock solutions were prepared in dimethyl sulfoxide (DMSO, Sigma-Aldrich, St. Louis, MO, cat. D2650), except for the platinum compounds which were prepared in saline (Quality Biological, Gaithersburg, MD, cat. 114-055-101), at 800-fold the tested concentration and stored at -70 degrees C prior to their use. All drugs and investigational agents were tested over a range starting from a high concentration at or near the clinical Cmax and decreasing in half-log increments. If the clinical Cmax for an agent had not been determined, the highest concentration tested was 10 microM, except for SN-38, which was tested at a high concentration of 1 microM.
Cell Culture. All cells were maintained in an incubator at 37 degrees C and 5% CO2 with 95% humidity. The PDC lines were cultured according to standard operating procedures established by the NCI PDMR (https://pdmr.cancer.gov). Table 3 of the manuscript, lists the cell lines along with the number of the three cell types plated to form the mct-spheroids and media for tumor cell growth. After thawing, all PDC lines, except 997537-175-T-J1-PDC and 415267-285-R-J2-PDC, were cultured in Matrigel-coated flasks prepared with a working solution of 1X Ham's F-12 nutrient mix, without supplementation (Thermo Fisher Scientific, cat. 11765054), 100 U/mL penicillin-streptomycin (Thermo Fisher Scientific, cat. 15140122), and 2.5% Matrigel (Corning Inc., Corning, NY, cat. 354248) for the first three passages. The two PDC lines 997537-175-T-J1-PDC and 415267-285-R-J2-PDC were cultured on uncoated flasks. The 857933-349-R-J2-PDC line was cultured in 6C/Colon 1B media containing advanced DMEM/F-12 (Thermo Fisher Scientific, cat. 12634028), 10 mM HEPES (Thermo Fisher Scientific, cat. 15630080), 1X GlutaMAX supplement (Thermo Fisher Scientific, cat. 35050061), 0.1 mg/mL primocin (InvivoGen, San Diego, CA, cat. ant-pm-2), 10% defined fetal bovine serum, heat inactivated (HyClone Laboratories Inc., Logan, UT, cat. SH30070.03HI), 50% L-WRN conditioned media (ATCC, cat. CRL-3276), 1.25 mM N-Acetyl-L-cysteine (Sigma-Aldrich, cat. A9165), 10 mM nicotinamide (Sigma-Aldrich, cat. N0636), 1X B-27 supplement (Thermo Fisher Scientific, cat. 17504044), 1X N-2 supplement (Thermo Fisher Scientific, cat. […]

[1] = second compound 0.0316 µM, first compound 0.0316 µM
[2] = second compound 0.0316 µM, first compound 0.1 µM
[3] = second compound 0.0316 µM, first compound 0.316 µM
[4] = second compound 0.0316 µM, first compound 1 µM
[5] = second compound 0.0316 µM, first compound 3.16 µM
[6] = second compound 0.0316 µM, first compound 10 µM
[7] = second compound 0.1 µM, first compound 0.0316 µM
[8] = second compound 0.1 µM, first compound 0.1 µM
[9] = second compound 0.1 µM, first compound 0.316 µM
[10] = second compound 0.1 µM, first compound 1 µM
[11] = second compound 0.1 µM, first compound 3.16 µM
[12] = second compound 0.1 µM, first compound 10 µM
[13] = second compound 0.316 µM, first compound 0.0316 µM
[14] = second compound 0.316 µM, first compound 0.1 µM
[15] = second compound 0.316 µM, first compound 0.316 µM
[16] = second compound 0.316 µM, first compound 1 µM
[17] = second compound 0.316 µM, first compound 3.16 µM
[18] = second compound 0.316 µM, first compound 10 µM
[19] = second compound 1 µM, first compound 0.0316 µM
[20] = second compound 1 µM, first compound 0.1 µM
[21] = second compound 1 µM, first compound 0.316 µM
[22] = second compound 1 µM, first compound 1 µM
[23] = second compound 1 µM, first compound 3.16 µM
[24] = second compound 1 µM, first compound 10 µM
[25] = second compound 3.16 µM, first compound 0.0316 µM
[26] = second compound 3.16 µM, first compound 0.1 µM
[27] = second compound 3.16 µM, first compound 0.316 µM
[28] = second compound 3.16 µM, first compound 1 µM
[29] = second compound 3.16 µM, first compound 3.16 µM
[30] = second compound 3.16 µM, first compound 10 µM
[31] = second compound 10 µM, first compound 0.0316 µM
[32] = second compound 10 µM, first compound 0.1 µM
[33] = second compound 10 µM, first compound 0.316 µM
[34] = second compound 10 µM, first compound 1 µM
[35] = second compound 10 µM, first compound 3.16 µM
[36] = second compound 10 µM, first compound 10 µM
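Also: spheroids exposed to compounds for seven days.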
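For viability, T/C in this document: 100% = DMSO vehicle control viability.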

Nc1ccn(C2OC(CO)C(O)C2(F)F)c(=O)n1 (centres undefined) + COC1C(OC(N)=O)C(O)C(Oc2ccc3c(O)c(NC(=O)c4ccc(O)c(CC=C(C)C)c4)c(=O)oc3c2C)OC1(C)C
IC50 (second compound 0.0316 µM): > 10 µM | IC50 (second compound 0.1 µM): > 10 µM | IC50 (second compound 0.316 µM): > 10 µM | IC50 (second compound 1 µM): > 10 µM | IC50 (second compound 3.16 µM): > 10 µM | IC50 (second compound 10 µM): > 10 µM | viability, T/C [1]: 82% | viability, T/C [2]: 81.5% | viability, T/C [3]: 75.1% | viability, T/C [4]: 72.2% | viability, T/C [5]: 63.9% | viability, T/C [6]: 55.2% | viability, T/C [7]: 91.1% | viability, T/C [8]: 82.6% | viability, T/C [9]: 73.1% | viability, T/C [10]: 70% | viability, T/C [11]: 68.3% | viability, T/C [12]: 50.5% | viability, T/C [13]: 96.2% | viability, T/C [14]: 78.5% | viability, T/C [15]: 76.6% | viability, T/C [16]: 70.2% | viability, T/C [17]: 63.5% | viability, T/C [18]: 47.6% | viability, T/C [19]: 92% | viability, T/C [20]: 84% | viability, T/C [21]: 71.8% | viability, T/C [22]: 70% | viability, T/C [23]: 62.5% | viability, T/C [24]: 48.6% | viability, T/C [25]: 89.2% | viability, T/C [26]: 81.9% | viability, T/C [27]: 72.5% | viability, T/C [28]: 67% | viability, T/C [29]: 63.2% | viability, T/C [30]: 52.1% | viability, T/C [31]: 93.1% | viability, T/C [32]: 82.3% | viability, T/C [33]: 75.3% | viability, T/C [34]: 73.1% | viability, T/C [35]: 66.4% | viability, T/C [36]: 52.1%

O=c1[nH]cc(F)c(=O)[nH]1 + COC1C(OC(N)=O)C(O)C(Oc2ccc3c(O)c(NC(=O)c4ccc(O)c(CC=C(C)C)c4)c(=O)oc3c2C)OC1(C)C
IC50 (second compound 0.0316 µM): > 10 µM | IC50 (second compound 0.1 µM): > 10 µM | IC50 (second compound 0.316 µM): > 10 µM | IC50 (second compound 1 µM): > 10 µM | IC50 (second compound 3.16 µM): > 10 µM | IC50 (second compound 10 µM): > 10 µM | viability, T/C [1]: 95.8% | viability, T/C [2]: 101% | viability, T/C [3]: 111% | viability, T/C [4]: 103% | viability, T/C [5]: 103% | viability, T/C [6]: 107% | viability, T/C [7]: 106% | viability, T/C [8]: 107% | viability, T/C [9]: 108% | viability, T/C [10]: 106% | viability, T/C [11]: 112% | viability, T/C [12]: 97.2% | viability, T/C [13]: 114% | viability, T/C [14]: 106% | viability, T/C [15]: 112% | viability, T/C [16]: 99.5% | viability, T/C [17]: 109% | viability, T/C [18]: 96.4% | viability, T/C [19]: 104% | viability, T/C [20]: 101% | viability, T/C [21]: 108% | viability, T/C [22]: 101% | viability, T/C [23]: 97.6% | viability, T/C [24]: 96.8% | viability, T/C [25]: 109% | viability, T/C [26]: 97.7% | viability, T/C [27]: 99.2% | viability, T/C [28]: 105% | viability, T/C [29]: 106% | viability, T/C [30]: 97.9% | viability, T/C [31]: 99.6% | viability, T/C [32]: 97.1% | viability, T/C [33]: 105% | viability, T/C [34]: 101% | viability, T/C [35]: 98.3% | viability, T/C [36]: 101%

From PubChem BioAssay AID1963840 (Molecular Pharmacology Branch, DTP, NCI, 2024)
